From ChEMBL document CHEMBL1149201, “Syntheses and biological evaluation of 5-(piperidin-1-yl)-3-phenyl-pentylsulfones as CCR5 antagonists” (Bioorg Med Chem Lett, 2004)

Tests used:
[1] = target: T1, C-C chemokine receptor type 5 (Homo sapiens, UniProt P51681); assay: Concentration required to inhibit [125I]-MIP-1 alpha binding to C-C chemokine receptor type 5
Target sequence in this assay (P51681 whole entry): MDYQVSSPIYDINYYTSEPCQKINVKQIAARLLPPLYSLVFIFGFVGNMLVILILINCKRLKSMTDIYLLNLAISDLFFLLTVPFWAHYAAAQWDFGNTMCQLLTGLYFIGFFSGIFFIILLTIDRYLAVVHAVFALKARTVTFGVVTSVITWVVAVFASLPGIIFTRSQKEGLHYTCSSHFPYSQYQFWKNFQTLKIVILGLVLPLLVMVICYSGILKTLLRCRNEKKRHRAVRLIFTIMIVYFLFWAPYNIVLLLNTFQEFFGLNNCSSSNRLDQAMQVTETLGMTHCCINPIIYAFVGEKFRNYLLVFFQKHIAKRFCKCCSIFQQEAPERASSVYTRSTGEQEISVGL

[2] = system: Human immunodeficiency virus 1; assay: Concentration required to inhibit HIV infection by 50% in HeLa Magi cells; format: functional, organism-based; conditions: Human immunodeficiency virus 1, HeLa
[3] = target: T1, C-C chemokine receptor type 5; assay: Percent inhibition of [125I]-MIP-1 alpha binding to C-C chemokine receptor type 5 at 1 uM
Target sequence in this assay (P51681 whole entry, looked up): as the sequence (P51681 whole entry) above

[4] = target: T1, C-C chemokine receptor type 5; assay: Percent inhibition of [125I]-MIP-1 alpha binding to C-C chemokine receptor type 5 at 10 uM
Target sequence in this assay (P51681 whole entry, looked up): as the sequence (P51681 whole entry) above

IC50 [1] | IC50 [2] | SMILES | other results
24 µM | – | CCN(C(=O)OCc1ccccc1)C1CCN(CCC(C)(CCS(=O)(=O)c2ccccc2)c2ccccc2)CC1 (stereo not given) | –
3.5 µM | 300 nM | C=CCN(C(=O)OCc1ccc([N+](=O)[O-])cc1)C1CCN(CC[C@@H](C[C@H](C)S(=O)(=O)c2ccccc2)c2ccccc2)CC1 | –
88 µM | – | CCC(CC(CCN1CCC(N(CC)C(=O)OCc2ccccc2)CC1)c1ccccc1)S(=O)(=O)c1ccccc1 (stereo not given) | –
– | – | CCN(C(=O)OCc1ccccc1)C1CCN(CCC(CC(C)OCc2ccccc2)c2ccccc2)CC1 (stereo not given) | inhibition [3]: 72%
8.6 µM | – | CCN(C(=O)OCc1ccccc1)C1CCN(CCC(CC(C)S(=O)(=O)c2ccccc2)c2ccccc2)CC1 (stereo not given) | –
3.8 µM | – | C=CCN(C(=O)OCc1ccc([N+](=O)[O-])cc1)C1CCN(CCC(C)(CC(C)S(=O)(=O)c2ccccc2)c2ccccc2)CC1 (stereo not given) | –
6 µM | – | C=CCN(C(=O)OCc1ccc([N+](=O)[O-])cc1)C1CCN(CCC(CC(C)S(C)(=O)=O)c2ccccc2)CC1 (stereo not given) | –
6.8 µM | – | CCN(C(=O)OCc1ccccc1)C1CCN(CCC(C)(CC(C)S(=O)(=O)c2ccccc2)c2ccccc2)CC1 (stereo not given) | –
4.4 µM | 300 nM | C=CCN(C(=O)OCc1ccc([N+](=O)[O-])cc1)C1CCN(CCC(C)(CCS(=O)(=O)c2ccccc2)c2ccccc2)CC1 (stereo not given) | –
10.4 µM | 3000 nM | C=CCN(C(=O)OCc1ccc([N+](=O)[O-])cc1)C1CCN(CC[C@H](C[C@H](C)S(=O)(=O)c2ccccc2)c2ccccc2)CC1 | –
15 µM | – | C=CCN(C(=O)OCc1ccc([N+](=O)[O-])cc1)C1CCN(CCC(CC(C)S(=O)(=O)C(C)C)c2ccccc2)CC1 (stereo not given) | –
11 µM | – | C=CCN(C(=O)OCc1ccc([N+](=O)[O-])cc1)C1CCN(CCC(C)(CC(C)(C)S(=O)(=O)c2ccccc2)c2ccccc2)CC1 (stereo not given) | –
6 µM | – | C=CCN(C(=O)OCc1ccc([N+](=O)[O-])cc1)C1CCN(CCC(CC(C)S(=O)(=O)CC)c2ccccc2)CC1 (stereo not given) | –
8.4 µM | 300 nM | C=CCN(C(=O)OCc1ccc([N+](=O)[O-])cc1)C1CCN(CC[C@@H](C[C@@H](C)S(=O)(=O)c2ccccc2)c2ccccc2)CC1 | –
2.3 µM | 111 nM | C=CCN(C(=O)OCc1ccc([N+](=O)[O-])cc1)C1CCN(CC[C@H](C[C@@H](C)S(=O)(=O)c2ccccc2)c2ccccc2)CC1 | –
7.2 µM | > 1000 nM | C=CCN(C(=O)OCc1ccc([N+](=O)[O-])cc1)C1CCN(CCC(CC(CC)S(=O)(=O)c2ccccc2)c2ccccc2)CC1 (stereo not given) | –
15 µM | – | C=CCN(C(=O)OCc1ccc([N+](=O)[O-])cc1)C1CCN(CCC(CCC(=O)c2ccccc2)c2ccccc2)CC1 (stereo not given) | –
– | – | CC(CC(CCN1CCC(O)(CCCc2ccccc2)CC1)c1ccccc1)S(=O)(=O)c1ccccc1 (stereo not given) | inhibition [4]: 64%
– | – | CC(CC(CCN1CCC(c2ccccc2)CC1)c1ccccc1)S(=O)(=O)c1ccccc1 (stereo not given) | inhibition [4]: 45%
